ChEMBL document CHEMBL1129134, “DNA threading agents: effect of sidechain bulk on DNA binding and cytotoxicity of 9-anilinoacridine-4-carboxamides” (Bioorg Med Chem Lett, 1996)

System: HT-29
Assay: Compound was tested for biological activity against human colon carcinoma cell line HT-29/219
Type: functional, cell-based

SMILES	IC50
COc1cc(NS(C)(=O)=O)ccc1Nc1c2ccccc2nc2c(C(=O)NC34C[C@H]5C[C@@H](C3)C[C@@H](C4)C5)cccc12	9.8 µM
Nc1c2ccccc2nc2c(C(=O)NC3CCCCCCC3)cccc12	5.2 µM
COc1cc(NS(C)(=O)=O)ccc1Nc1c2ccccc2nc2c(C(=O)NC3CCCCCCC3)cccc12	5.8 µM
Nc1c2ccccc2nc2c(C(=O)NC3CC3)cccc12	5.8 µM
Nc1c2ccccc2nc2c(C(=O)NC3CCCCC3)cccc12	5.6 µM
COc1cc(NS(C)(=O)=O)ccc1Nc1c2ccccc2nc2c(C(=O)NC3CCCCC3)cccc12	4.7 µM
COc1cc(NS(C)(=O)=O)ccc1Nc1c2ccccc2nc2c(C(=O)NC3CC3)cccc12	3.6 µM
Nc1c2ccccc2nc2c(C(=O)NC3CCCCCCCCCCC3)cccc12	7.7 µM

Now those with a lower IC50, led by results:

IC50	SMILES
0.57 µM	Nc1c2ccccc2nc2c(C(=O)NC34C[C@H]5C[C@@H](C3)C[C@@H](C4)C5)cccc12
0.14 µM	CN(C)CCNC(=O)c1cccc2c(N)c3ccccc3nc12
3.3 µM	COc1cc(NS(C)(=O)=O)ccc1Nc1c2ccccc2nc2c(C(=O)NC3CCCCCCCCCCC3)cccc12
0.061 µM	COc1cc(NS(C)(=O)=O)ccc1Nc1c2ccccc2nc2c(C(=O)NCCN(C)C)cccc12
